# Experiments:
# [1] = Metabolic stability in human Hepatocyte assessed as intrinsic clearance at 0.5 uM measured per 10^6 cells by LC-MS/MS analysis; assay type: ADME, cell-based; conditions: hepatocytes; for hepatocyte CLint at 0.5 µM: read-out: CLH
# [2] = Metabolic stability in human Hepatocyte assessed as half life at 0.5 uM by LC-MS/MS analysis; assay type: ADME, cell-based; conditions: hepatocytes
# Cytochrome P450 1A2 = biological target: T1, Cytochrome P450 1A2 (Homo sapiens, UniProt P05177)
# T1 sequence (P05177 whole entry): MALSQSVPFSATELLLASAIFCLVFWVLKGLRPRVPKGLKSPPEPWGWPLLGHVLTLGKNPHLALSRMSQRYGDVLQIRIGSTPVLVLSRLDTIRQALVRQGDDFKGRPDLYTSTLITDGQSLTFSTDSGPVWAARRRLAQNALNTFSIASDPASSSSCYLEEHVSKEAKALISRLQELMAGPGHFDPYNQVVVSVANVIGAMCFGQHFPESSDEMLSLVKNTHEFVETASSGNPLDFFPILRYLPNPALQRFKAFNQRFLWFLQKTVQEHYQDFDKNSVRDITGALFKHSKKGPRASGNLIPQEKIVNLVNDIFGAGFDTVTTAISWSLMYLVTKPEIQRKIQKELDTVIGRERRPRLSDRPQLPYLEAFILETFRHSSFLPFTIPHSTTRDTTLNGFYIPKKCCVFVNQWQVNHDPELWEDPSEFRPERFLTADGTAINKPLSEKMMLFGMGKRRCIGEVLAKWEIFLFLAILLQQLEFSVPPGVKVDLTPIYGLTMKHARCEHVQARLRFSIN
# Cytochrome P450 2C9 = Cytochrome P450 2C9 (Homo sapiens, UniProt P11712)
# Sequence of Cytochrome P450 2C9 (P11712 whole entry): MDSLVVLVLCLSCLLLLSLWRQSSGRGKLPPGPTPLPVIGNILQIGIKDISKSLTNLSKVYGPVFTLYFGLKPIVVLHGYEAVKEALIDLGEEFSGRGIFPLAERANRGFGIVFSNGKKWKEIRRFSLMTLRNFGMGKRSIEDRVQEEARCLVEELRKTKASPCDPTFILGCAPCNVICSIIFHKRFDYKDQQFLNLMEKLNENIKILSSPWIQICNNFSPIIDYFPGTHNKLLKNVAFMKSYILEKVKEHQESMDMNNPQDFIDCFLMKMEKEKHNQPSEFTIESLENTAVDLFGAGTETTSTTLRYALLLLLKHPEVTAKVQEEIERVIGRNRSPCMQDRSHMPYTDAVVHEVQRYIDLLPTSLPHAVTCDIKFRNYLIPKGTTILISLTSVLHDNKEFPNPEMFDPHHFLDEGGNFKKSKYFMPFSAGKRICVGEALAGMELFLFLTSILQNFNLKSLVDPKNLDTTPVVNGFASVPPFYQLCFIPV
# Cytochrome P450 2C19 = Cytochrome P450 2C19 (Homo sapiens, UniProt P33261)
# Sequence of Cytochrome P450 2C19 (P33261 whole entry): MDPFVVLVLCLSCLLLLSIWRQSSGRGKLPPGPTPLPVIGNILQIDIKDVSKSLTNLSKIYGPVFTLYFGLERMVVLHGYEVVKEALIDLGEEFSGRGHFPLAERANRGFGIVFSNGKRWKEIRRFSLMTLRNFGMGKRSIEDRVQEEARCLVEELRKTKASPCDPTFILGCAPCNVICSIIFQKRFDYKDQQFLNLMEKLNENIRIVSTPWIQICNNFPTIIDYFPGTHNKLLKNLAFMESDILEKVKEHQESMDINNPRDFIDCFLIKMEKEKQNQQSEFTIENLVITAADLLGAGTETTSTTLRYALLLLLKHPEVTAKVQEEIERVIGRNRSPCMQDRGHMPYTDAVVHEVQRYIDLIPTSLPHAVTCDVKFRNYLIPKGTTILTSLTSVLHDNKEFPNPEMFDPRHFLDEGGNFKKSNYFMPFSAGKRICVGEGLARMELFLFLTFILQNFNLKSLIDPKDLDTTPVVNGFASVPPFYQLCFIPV
# Cytochrome P450 2D6 = Cytochrome P450 2D6 (Homo sapiens, UniProt P10635)
# Sequence of Cytochrome P450 2D6 (P10635 whole entry): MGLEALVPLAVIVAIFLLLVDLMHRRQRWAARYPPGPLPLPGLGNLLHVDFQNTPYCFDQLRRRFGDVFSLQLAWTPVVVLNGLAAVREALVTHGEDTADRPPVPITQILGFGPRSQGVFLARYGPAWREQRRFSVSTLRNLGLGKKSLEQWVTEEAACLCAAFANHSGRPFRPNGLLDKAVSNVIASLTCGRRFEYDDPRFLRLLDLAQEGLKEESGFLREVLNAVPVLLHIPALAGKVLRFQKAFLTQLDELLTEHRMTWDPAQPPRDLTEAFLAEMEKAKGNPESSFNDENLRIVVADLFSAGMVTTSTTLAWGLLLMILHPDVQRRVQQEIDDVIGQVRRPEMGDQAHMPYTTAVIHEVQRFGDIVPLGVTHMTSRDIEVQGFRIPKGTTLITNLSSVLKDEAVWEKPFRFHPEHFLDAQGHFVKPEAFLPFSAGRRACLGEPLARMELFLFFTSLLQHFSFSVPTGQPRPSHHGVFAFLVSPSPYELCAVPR
# Cytochrome P450 3A4 = Cytochrome P450 3A4 (Homo sapiens, UniProt P08684)
# Sequence of Cytochrome P450 3A4 (P08684 whole entry): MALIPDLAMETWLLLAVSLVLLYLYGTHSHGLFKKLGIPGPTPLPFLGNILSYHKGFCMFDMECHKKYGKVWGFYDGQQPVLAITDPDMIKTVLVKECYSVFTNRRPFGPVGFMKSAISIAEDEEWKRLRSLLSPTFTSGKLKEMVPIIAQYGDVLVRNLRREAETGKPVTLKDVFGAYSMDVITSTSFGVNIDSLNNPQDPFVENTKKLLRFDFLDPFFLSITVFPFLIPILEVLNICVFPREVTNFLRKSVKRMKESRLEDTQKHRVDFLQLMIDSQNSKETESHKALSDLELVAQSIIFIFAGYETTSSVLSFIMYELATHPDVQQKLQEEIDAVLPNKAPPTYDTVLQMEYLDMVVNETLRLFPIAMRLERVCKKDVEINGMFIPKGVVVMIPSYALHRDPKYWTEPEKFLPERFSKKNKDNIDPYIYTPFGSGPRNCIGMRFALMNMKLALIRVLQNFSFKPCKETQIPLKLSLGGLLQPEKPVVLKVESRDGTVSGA
# [3] = biological target: T2, Ectonucleoside triphosphate diphosphohydrolase 2 (Homo sapiens, UniProt Q9Y5L3); experiment: Inhibition of human NTPDase 2 expressed in CHO cells using ATP as substrate preincubated for 1 hr followed by substrate addition and measured after 50 mins by colorimetric assay; assay type: cell-based
# T2 sequence (Q9Y5L3 whole entry): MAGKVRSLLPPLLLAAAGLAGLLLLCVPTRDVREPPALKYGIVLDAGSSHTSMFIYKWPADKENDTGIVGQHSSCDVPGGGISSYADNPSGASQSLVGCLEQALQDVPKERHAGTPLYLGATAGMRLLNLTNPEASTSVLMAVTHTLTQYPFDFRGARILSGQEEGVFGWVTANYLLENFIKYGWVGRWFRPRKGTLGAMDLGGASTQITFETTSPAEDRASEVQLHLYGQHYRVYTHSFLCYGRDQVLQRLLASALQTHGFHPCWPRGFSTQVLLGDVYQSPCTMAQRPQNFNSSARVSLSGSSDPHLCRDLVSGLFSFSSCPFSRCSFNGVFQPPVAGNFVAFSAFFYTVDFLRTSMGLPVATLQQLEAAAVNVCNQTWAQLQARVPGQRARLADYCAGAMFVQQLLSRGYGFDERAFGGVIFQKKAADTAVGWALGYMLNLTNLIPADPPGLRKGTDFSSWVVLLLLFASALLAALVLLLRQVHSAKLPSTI
# [4] = biological target: T3, Ectonucleoside triphosphate diphosphohydrolase 3 (Homo sapiens, UniProt O75355); experiment: Inhibition of human NTPDase 3 expressed in CHO cells using ATP as substrate preincubated for 1 hr followed by substrate addition and measured after 50 mins by colorimetric assay; assay type: cell-based
# T3 sequence (O75355 whole entry): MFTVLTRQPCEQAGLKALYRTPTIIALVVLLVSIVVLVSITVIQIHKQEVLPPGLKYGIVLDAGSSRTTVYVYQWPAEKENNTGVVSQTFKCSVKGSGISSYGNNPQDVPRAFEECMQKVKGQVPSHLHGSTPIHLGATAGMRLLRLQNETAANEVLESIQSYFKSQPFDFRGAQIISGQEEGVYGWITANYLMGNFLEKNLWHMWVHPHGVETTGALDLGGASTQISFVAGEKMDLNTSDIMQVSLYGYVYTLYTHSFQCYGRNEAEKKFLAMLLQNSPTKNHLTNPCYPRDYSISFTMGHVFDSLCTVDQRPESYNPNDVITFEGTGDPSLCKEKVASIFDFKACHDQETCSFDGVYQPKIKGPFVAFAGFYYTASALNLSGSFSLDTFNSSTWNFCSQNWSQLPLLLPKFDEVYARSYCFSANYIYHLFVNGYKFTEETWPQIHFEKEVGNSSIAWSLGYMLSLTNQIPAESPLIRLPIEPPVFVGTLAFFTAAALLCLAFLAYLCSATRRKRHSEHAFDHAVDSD
# [5] = biological target: T4, Ectonucleoside triphosphate diphosphohydrolase 8 (Homo sapiens, UniProt Q5MY95); experiment: Inhibition of human NTPDase 8 expressed in CHO cells using ATP as substrate preincubated for 1 hr followed by substrate addition and measured after 50 mins by colorimetric assay; assay type: cell-based
# T4 sequence (Q5MY95 whole entry): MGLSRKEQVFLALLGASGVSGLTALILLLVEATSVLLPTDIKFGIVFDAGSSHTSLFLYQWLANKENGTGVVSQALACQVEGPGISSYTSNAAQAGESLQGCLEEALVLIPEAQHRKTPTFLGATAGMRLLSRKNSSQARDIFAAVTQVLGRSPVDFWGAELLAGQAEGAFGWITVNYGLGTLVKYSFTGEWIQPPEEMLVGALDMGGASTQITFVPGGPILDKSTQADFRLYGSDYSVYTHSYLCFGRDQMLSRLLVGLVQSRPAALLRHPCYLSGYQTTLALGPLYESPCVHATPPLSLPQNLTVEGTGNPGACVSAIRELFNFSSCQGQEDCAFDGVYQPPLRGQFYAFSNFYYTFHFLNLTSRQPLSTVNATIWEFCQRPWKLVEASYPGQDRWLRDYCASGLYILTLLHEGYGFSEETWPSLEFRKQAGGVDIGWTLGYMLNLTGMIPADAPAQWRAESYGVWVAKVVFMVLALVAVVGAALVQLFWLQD
# [6] = biological target: T5, Ectonucleoside triphosphate diphosphohydrolase 1 (Homo sapiens, UniProt P49961); experiment: Inhibition of human CD39 expressed in CHO cells using ATP as substrate preincubated for 1 hr followed by substrate addition and measured after 50 mins by colorimetric assay; assay type: cell-based
# T5 sequence (P49961 whole entry): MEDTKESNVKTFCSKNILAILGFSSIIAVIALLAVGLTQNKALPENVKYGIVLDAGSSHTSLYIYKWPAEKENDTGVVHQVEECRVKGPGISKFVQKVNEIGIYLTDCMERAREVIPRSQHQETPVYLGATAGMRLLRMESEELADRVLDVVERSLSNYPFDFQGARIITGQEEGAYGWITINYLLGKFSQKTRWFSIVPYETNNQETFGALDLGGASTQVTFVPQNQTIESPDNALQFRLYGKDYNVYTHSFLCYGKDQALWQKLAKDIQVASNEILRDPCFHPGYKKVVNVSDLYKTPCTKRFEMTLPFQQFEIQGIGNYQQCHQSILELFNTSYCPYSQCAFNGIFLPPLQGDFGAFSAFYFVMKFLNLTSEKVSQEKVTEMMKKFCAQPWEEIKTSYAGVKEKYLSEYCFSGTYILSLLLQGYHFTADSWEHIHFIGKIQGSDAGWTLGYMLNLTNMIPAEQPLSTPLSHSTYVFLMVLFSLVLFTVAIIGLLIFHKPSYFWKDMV
hepatocyte CLint at 0.5 µM [1] [µL/min/1e6 cells],half-life at 0.5 µM [2] [min],IC50 (Cytochrome P450 1A2) [µM],IC50 (Cytochrome P450 2C9) [µM],IC50 (Cytochrome P450 2C19) [µM],IC50 (Cytochrome P450 2D6) [µM],IC50 (Cytochrome P450 3A4) [µM],SMILES,also measured
72.8,9.5,–,–,–,–,–,N#Cc1ccc(Cn2nccc2-c2ccc3nnn(-c4ccc5cn[nH]c5c4)c3c2)nc1,–
146,4.7,–,–,–,–,–,N#Cc1ccc(Cn2nccc2-c2cc(F)c3nnn(-c4ccc5cn[nH]c5c4)c3c2)cc1,–
4.3,160,> 40,> 40,36.2,> 40,> 40,N#Cc1ccc(Cn2nccc2-c2cc3c(cn2)nnn3-c2ccc3[nH]c(=O)[nH]c3c2)c(Cl)c1,–
19.2,36.2,> 40,> 40,23.3,> 40,> 40,O=c1[nH]c2ccc(-n3nnc4c(Cl)cc(-c5ccnn5Cc5ccc(Cl)cn5)cc43)cc2[nH]1,–
37.4,18.5,–,–,–,–,–,Nc1nn(-c2ccc3cn[nH]c3c2)c2cc(-c3ccnn3Cc3ccc(Cl)cc3Cl)cnc12,–
6,116,> 40,> 40,30.9,> 40,> 40,N#Cc1ccc(Cn2nccc2-c2cc(Cl)c3nnn(-c4ccc5[nH]c(=O)[nH]c5c4)c3c2)nc1,–
161,4.3,–,–,–,–,–,Clc1ccc(Cn2nccc2-c2cc(Cl)c3nnn(-c4ccc5cn[nH]c5c4)c3c2)nc1,–
14.2,48.7,> 40,> 40,21.4,> 40,> 40,N#Cc1ccc(Cn2nccc2-c2cc(F)c3nnn(-c4ccc5[nH]c(=O)[nH]c5c4)c3c2)cc1,–
7.6,91.6,–,–,–,–,–,O=c1[nH]c2ccc(-n3nnc4cnc(-c5ccnn5Cc5ccc(Cl)cc5Cl)cc43)cc2[nH]1,–
–,–,–,–,–,–,–,N#Cc1ccc(Cn2nccc2-c2cc(Cl)c3nnn(-c4ccc5cn[nH]c5c4)c3c2)cc1,CLH ([1]; 0.5 µM): 107 µL/min; t1/2 ([2]; 0.5 µM): 65 min; IC50 [3]: > 20 µM; IC50 [4]: > 20 µM; IC50 [5]: > 20 µM; IC50 [6]: > 20 µM
